# According to patent publication US20140134178A1, “PHOSPHORYLATION OF HISTONES AND USES THEREOF” (H. LEE MOFFITT CANCER CENTER AND RESEARCH INSTITUTE, priority 2012, published 2014):
# “Also recorded” adds a separate entry of the source.
# Experiments:
# Xenopus laevis embryos = experiment: Xenopus embryo injection, gastrulation/epiboly phenotype
# From the text: Table 4 provides the phenotype distribution for surviving embryos (raw data are identical to those in Table 3).
# [1] = tested on: PSA, NKX3,1 and TMPRSS2 genes; experiment: Testosterone-independent expression of AR-target genes; type: cell-based
# [2] = tested on: LNCaP-caAck expressing cells; experiment: Prostate xenograft tumor growth, LNCaP-caAck cells in castrated nude male mice; type: in vivo; settings: 4 mg/kg of body weight per injection, five times
# Method: Castrated nude male mice were injected with LNCaP-caAck expressing cells. Mice were injected with AIM-100 (4 mg/kg of body weight per injection) on five times (n=8) and tumor volumes were measured.
# Ack1 [3] = target: T1, Ack1 (Homo sapiens, UniProt Q07912, E346K); type: biochemical; settings: 5 uM for 1 hour at 30° C.
# T1 construct: HA; made in house
# T1 sequence (Q07912 whole entry E346K): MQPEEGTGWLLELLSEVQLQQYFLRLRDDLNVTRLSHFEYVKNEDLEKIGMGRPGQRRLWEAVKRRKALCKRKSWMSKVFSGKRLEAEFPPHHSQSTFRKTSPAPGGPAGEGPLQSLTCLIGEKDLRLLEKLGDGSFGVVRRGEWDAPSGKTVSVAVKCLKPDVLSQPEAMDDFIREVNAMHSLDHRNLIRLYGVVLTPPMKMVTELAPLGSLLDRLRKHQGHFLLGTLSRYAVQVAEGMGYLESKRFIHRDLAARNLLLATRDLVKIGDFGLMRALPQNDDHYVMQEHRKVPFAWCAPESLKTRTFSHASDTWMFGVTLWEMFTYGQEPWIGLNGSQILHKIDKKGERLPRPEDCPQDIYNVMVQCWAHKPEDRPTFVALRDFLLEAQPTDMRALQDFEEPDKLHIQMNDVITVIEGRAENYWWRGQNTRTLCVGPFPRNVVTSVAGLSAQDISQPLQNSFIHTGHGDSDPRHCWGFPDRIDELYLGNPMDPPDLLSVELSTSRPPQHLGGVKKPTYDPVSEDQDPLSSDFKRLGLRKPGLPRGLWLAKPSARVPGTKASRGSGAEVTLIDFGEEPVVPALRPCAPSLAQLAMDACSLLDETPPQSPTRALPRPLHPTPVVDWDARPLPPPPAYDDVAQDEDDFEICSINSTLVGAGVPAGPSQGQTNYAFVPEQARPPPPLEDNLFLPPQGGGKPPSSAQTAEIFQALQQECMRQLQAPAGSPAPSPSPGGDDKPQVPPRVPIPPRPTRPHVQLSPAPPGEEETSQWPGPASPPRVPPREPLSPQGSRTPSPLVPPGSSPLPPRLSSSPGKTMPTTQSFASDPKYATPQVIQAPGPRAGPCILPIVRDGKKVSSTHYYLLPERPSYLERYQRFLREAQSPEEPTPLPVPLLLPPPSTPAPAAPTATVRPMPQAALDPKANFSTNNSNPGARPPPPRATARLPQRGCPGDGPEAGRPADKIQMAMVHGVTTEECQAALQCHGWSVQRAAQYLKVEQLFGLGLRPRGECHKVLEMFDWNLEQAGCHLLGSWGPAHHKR
# Method: To test whether Ack1 directly phosphorylates H4, in vitro kinase assay (Mahajan, K., et al. PLoS One 5, e9646 (2010)) was performed. […] HEK293 cells were treated with EGF or EGF+AIM-100 (5 uM, 14 hour) and lysates were immunoprecipitated with Ack1 antibodies followed by immunoblotting with H4 antibodies.
# Ack1 [4] = target: T2, Ack1 (Homo sapiens, UniProt Q07912); type: cell-based; set-up: endogenous in cells; host or cells: LAPC4
# T2 sequence (Q07912 whole entry): as the sequence (Q07912 whole entry E346K) above, with K346E counted along it
# Method: The prostate cancer derived cells, LAPC4 were treated with AIM-100 (7 uM, 16 hours). The equal amount of cell lysates were subjected to immunoblotting with H3K9me3 and histone H3 antibodies. […] The histone H3 antibodies were used as a control to indicate equal amount of protein.
# LAPC4 cells were treated with EGF or EGF and AIM-100 and the lysates were immunoblotted with H3K9 dimethyl and H3K27 dimethyl antibodies.
# Ack1 [5] = experiment: Ack1 phosphorylation of histone H3 at Tyr99 in ligand-treated cell lines; type: cell-based
# From the text: The discovery was made that Ack1 phosphorylates histone H3 at tyrosine 99. To delineate functional consequences of H3 Ty99-phosphorylation, phospho-antibodies were raised. […] Thus, marking of chromatin with H3-Tyr99-phosphorylation within AR-target gene promoters may suppress repressive dimethylation leading to transcriptional activation in androgen-deprived environment of CRPC tumors. This study uncovers a previously unknown mechanism of regulation of pTyr267-AR-target gene expression, which can be therapeutically reversed by suppression of Ack1/AR/pTyr99-H3 signaling by AIM-100.
# Ack1 [6] = target: T2, Ack1; experiment: H4 Tyr51-phosphorylation in EGF-treated HEK293T cells (IP/immunoblot); type: cell-based; set-up: endogenous in cells; host or cells: HEK293T; settings: serum starved HEK293T, EGF+AIM-100
# Method: To examine whether H4 is a Ack1 kinase substrate, cells were treated with EGF or EGF+Ack1 inhibitor, AIM-100 (Mahajan, K., et al. Prostate 70, 1274-1285 (2010)). Specifically, serum starved HEK293T were treated with EGF or EGF+AIM-100 and cells were harvested. […] Equal amounts of lysates were immunoblotted with H4 antibody or pTyr284-Ack1 antibody.
# Ack1 [7] = target: T2, Ack1; type: biochemical; set-up: endogenous in cells; host or cells: LAPC4; settings: purified Ack1, H4 peptide, ELISA with pY88 antibodies
# Method: WEE1 and Ack1 are two non-receptor tyrosine kinases or NRTKs that have known nuclear functions. To determine whether WEE1 and Ack1 can directly target H4 for Tyr88-phosphorylation, this study performed in vitro kinase assay. In brief, the Streptavidin coated 96-well plates (R&D systems) were incubated with biotinylated H4-derived peptide […] (SEQ ID NO: 64) for 1 hour. The plates were washed and the purified WEE1 or Ack1 were added in kinase buffer (20 mM HEPES, 150 mM NaCl, 0.5% Triton X-100, 10% Glycerol, phosphatase and protease inhibitors) containing ATP and MgCl2. After 2 hours of incubation, plates were washed with phosphate buffered saline containing 0.1% Tween 20 (PBST) and blocked in 3% BSA. The pY88-H4 antibodies (at 1:500 dilution) were added and incubated for 1 hour. Unbound antibodies were washed and HRP-conjugated anti-mouse secondary Antibodies (1:2000) were added. Magnitude of phosphorylation was detected using developer solution (OPD tablets, Sigma) and the plates were read at 450 nm. As a negative control, no kinase and no peptide reactions were used. The biotinylated phosphopeptide […]p[…] (SEQ ID NO: 65) was used as a positive control.
# pTyr267-AR = experiment: ChIP-qPCR for pTyr267-AR binding to PSA, NKX3.1 and TMPRSS2 AREs in LAPC4 cells; type: cell-based; settings: 0.8 μM, 16 hr
# Method: LAPC4 cells were treated with DHT (5 nM, 16 hr), EGF (10 ng/ml, 1 hr), or EGF and AIM-100 (0.8 μM, 16 hr) and ChIP analysis for pTyr267-AR binding to the PSA, NKX3.1 and TMPRSS2 AREs was performed followed by qPCR. Ack1 inhibition by AIM-100 suppressed recruitment of pTyr-AR to PSA, NKX3,1 and TMPRSS2 promoters (FIGS. 8A-8C).
# [8] = tested on: S. cerevisiae wildtype and H2BY40A mutants; experiment: Yeast spot growth assay on YPD plates with MMS; type: cell-based, Saccharomyces cerevisiae; settings: in contrast to wild type cells, growth 72 h post-plating
# Method: Wt and H2BY40A mutants were serially diluted and spotted on YPD plates in the absence or presence of MMS and growth was assessed 72 h post-plating.
# To test whether excess of histones interfere with the ability of cells to repair DNA damage, S. cerevisiae wildtype (Wt) and H2BY40A mutants were exposed to DNA alkylating agent Methylmethane sulphonate (MMS). MMS inhibits DNA replication by methylating adenine or guanine in the DNA to cause base mispairing and stalling of replication forks, until the mutated/alkylated bases are excised out and replaced with the normal bases by the DNA alkyl transferases or the nucleotide repair machinery. […] Rad53 is a functional homologue of human Chk1 and Chk2 in budding yeast. It not only senses DNA replication stress during S phase but also acts as a surveillance machinery to detect excess histones that are not packaged into chromatin and targets them for degradation.
# [9] = tested on: core histone genes located in Hist1 cluster; experiment: qRT-PCR of histone genes in synchronized cells (8-histone gene signature); type: cell-based; settings: MK1775 0.6 uM, 14 hr; 8.30 hours post-release
# Method: Human cells have 55 distinct histone genes each encoding a fraction of core histones. This study determined histone levels using 20 of these genes. In untreated cells, rapid decrease in transcripts of all of these histone genes was observed when RNA levels of 6.30 hours post-release samples (late S phase) were compared with 8.30 hours post-release (G2/M phase) samples (FIG. 33a-h).
# [10] = tested on: cancers and cancer cell lines; settings: cited from earlier work
# [11] = tested on: core histone genes in Hist1 cluster; experiment: Quantitative RT-PCR of core histone transcripts in synchronized MEFs; type: cell-based, mouse; settings: MK1775 0.625 μM, 14 hr; 8.30 hours post-release
# Method: MEFs or H1975 were grown to 60-70% confluency in serum rich media. Thymidine is added at a final concentration of 2 mM and incubated for 17 hours. Cells were washed three times with phosphate buffered saline (PBS) and fresh serum containing media was added. After 10 hours, thymidine was added again to 2 mM final concentration. The cells were incubated for 17 hours and washed three times with PBS, replaced with serum containing media and time points were collected. All RT reactions were done (Mahajan, K. et al. PLoS One 5, e9646 (2010)) at the same time so that the same reactions could be used for all gene studies. For the construction of standard curves, serial dilutions of pooled sample RNA were used (50, 10, 2, 0.4, 0.08, and 0.016 ng) per reverse transcriptase reaction. One “no RNA” control and one “no Reverse Transcriptase” (No RT) controls were included for the standard curve. Three reactions were performed for each sample: 10 ng, 0.8 ng, and a No RT (10 ng) control. Real-time quantitative PCR analyses were performed using the ABI PRISM 7900HT Sequence Detection System (Applied Biosystems). […] Data were analyzed using SDS software version 2.2.2 and exported into an Excel spreadsheet. […]
# [12] = tested on: pTyr37-H2B upstream of Hist1 cluster; experiment: Native ChIP-qPCR with pTyr37-H2B antibody, Site I and II upstream of Hist1 cluster, synchronized MEFs; type: cell-based, mouse; settings: 6.30 hours post-release
# Method: MEFs or H1975 were grown to 60-70% confluency in serum rich media. Thymidine is added at a final concentration of 2 mM and incubated for 17 hours. Cells were washed three times with phosphate buffered saline (PBS) and fresh serum containing media was added. After 10 hours, thymidine was added again to 2 mM final concentration. The cells were incubated for 17 hours and washed three times with PBS, replaced with serum containing media and time points were collected.
# As a first step, extensive standardization of pTyr37-H2B antibodies were performed for its usage in ChIP. CHIP was performed using the Active Motif kit as per manufacturer's instructions. For ChIP synchronized MEFs were harvested at 0 and 6.30 hour post thymidine release (5×10^7 cells). Cells pellets were lysed in RLB buffer (Mahajan, N. P. et al. Proc. Nat. Acad. Sci. U.S.A. 104, 8438-8443 (2007); Mahajan, K. et al. Prostate 70, 1274-1285 (2010)) on ice for 10 minutes and sonicated for 25 seconds to shear DNA to an average length of 300-500 bp. The soluble chromatin was incubated overnight at 4° C. with pTyr37-H2B antibody. 20 μl of protein-A agarose was added and the beads were washed sequentially and DNA was eluted. […] Pellets were resuspended and the resulting DNA was quantified on a NanoDrop spectrophotometer. Extrapolation to the original chromatin volume allowed quantitation of the total chromatin yield. […]
# [13] = tested on: NPAT and RNA polymerase II at site II; experiment: ChIP-qPCR with NPAT or RNA polymerase II antibodies at Site II, synchronized MEFs; type: cell-based, mouse; settings: 6.30 hours post-release
# Method: As a first step, extensive standardization of pTyr37-H2B antibodies were performed for its usage in ChIP. CHIP was performed using the Active Motif kit as per manufacturer's instructions. For ChIP synchronized MEFs were harvested at 0 and 6.30 hour post thymidine release (5×10^7 cells). Cells pellets were lysed in RLB buffer (Mahajan, N. P. et al. Proc. Nat. Acad. Sci. U.S.A. 104, 8438-8443 (2007); Mahajan, K. et al. Prostate 70, 1274-1285 (2010)) on ice for 10 minutes and sonicated for 25 seconds to shear DNA to an average length of 300-500 bp. The soluble chromatin was incubated overnight at 4° C. with pTyr37-H2B antibody. 20 μl of protein-A agarose was added and the beads were washed sequentially and DNA was eluted. Genomic DNA (Input) was prepared by treating aliquots of chromatin with RNase, proteinase-K followed by ethanol precipitation. Pellets were resuspended and the resulting DNA was quantified on a NanoDrop spectrophotometer. Extrapolation to the original chromatin volume allowed quantitation of the total chromatin yield. An aliquot of chromatin (20-30 μg) was pre-cleared with protein-A agarose beads (Invitrogen). Genomic DNA regions of interest were isolated using pTyr37-H2B antibody. […]
# To understand the potential mechanism of repression of histone transcription the role of NPAT was assessed. […]
# [14] = tested on: WEE1 expressing cancer cell lines; settings: cited from earlier work
# [15] = Table 3, antibodies 200 ng/em, AIM-100 200 pM/em
compound,measurement,setting,value
c1ccc(-c2oc3ncnc(NC[C@@H]4CCCO4)c3c2-c2ccccc2)cc1 [AIM-100],"abn/delay, gastrulation is abnormal or delayed (% of total embryos)",Xenopus laevis embryos; [15],6.7%
same,"abn/delay, gastrulation is abnormal or delayed (number of embryos)",Xenopus laevis embryos; [15],15
same,dead (% of total embryos),Xenopus laevis embryos; [15],43%
same,dead (number of embryos),Xenopus laevis embryos; [15],97
same,"epib blk, epiboly block phenotype (% of total embryos)",Xenopus laevis embryos; [15],29%
same,"epib blk, epiboly block phenotype (number of embryos)",Xenopus laevis embryos; [15],65
same,"epib red, partial phenotype (% of total embryos)",Xenopus laevis embryos; [15],8%
same,"epib red, partial phenotype (number of embryos)",Xenopus laevis embryos; [15],18
same,norm. (% of total embryos),Xenopus laevis embryos; [15],11%
same,norm. (number of embryos),Xenopus laevis embryos; [15],24
same,Tot survivors,Xenopus laevis embryos; Table 4,128
same,abn/delay (% of surviving embryos),"Xenopus laevis embryos; Table 4, surviving embryos",(12%)
same,abn/delay (number of surviving embryos),"Xenopus laevis embryos; Table 4, surviving embryos",15
same,epib blk (number of surviving embryos),"Xenopus laevis embryos; Table 4, surviving embryos",65
same,epib red (number of surviving embryos),"Xenopus laevis embryos; Table 4, surviving embryos",18
same,normal (% of surviving embryos),"Xenopus laevis embryos; Table 4, surviving embryos",19%
same,normal (number of surviving embryos),"Xenopus laevis embryos; Table 4, surviving embryos",24
same,mortality rates,"Xenopus laevis embryos; by the onset of gastrulation, ~20 hours after microinjection at the 2-cell stage, 16° C.",43-45%
same,mortality at the onset of gastrulation versus controls,Xenopus laevis embryos; in vivo,Neither pTyr51-H4 nor AIM-100 lead to increased mortality
same,timing or pattern of early cleavages,Xenopus laevis embryos; in vivo,did not alter
same,"epib blk, epiboly block/involution failure (% of surviving embryos)",Xenopus laevis embryos; surviving embryos,51%
same,"epib red, partial reduced epiboly phenotype (% of surviving embryos)",Xenopus laevis embryos; surviving embryos,14%
same,"epib blk, epiboly block/involution failure (% of surviving embryos)","Xenopus laevis embryos; surviving embryos, listed as AIM 100",(51%)
same,"testosterone-independent expression of PSA, NKX3,1 and TMPRSS2 genes",[1],suppressed
same,prostate xenograft tumor growth,[2],mitigated; also recorded: partially suppresses
same,H4 pTyr51-phosphorylation,Ack1 [3],abrogated
same,H3K9 and K27 dimethylation and trimethylation,Ack1 [4],increased
same,H3 K9 trimethylation,"Ack1 [4]; LAPC4 cells, 7 uM, 16 hours",increased; also recorded: significant increase
same,H3K9 and K27 dimethylation,"Ack1 [4]; LAPC4 cells, EGF and AIM-100",increased
same,Ack1 phosphorylation of H3 at Tyr99,Ack1 [5],significantly compromised
same,H4 pTyr51-phosphorylation,Ack1 [6],almost complete loss
same,H4 Tyr88-phosphorylation,Ack1 [7],significantly decreased; also recorded: significantly reduced
same,"recruitment of pTyr-AR to PSA, NKX3,1 and TMPRSS2 promoters",pTyr267-AR,suppressed
"COS(C)(=O)=O [MMS, Methylmethane sulphonate]",sensitivity of H2BY40A mutants,[8],acute sensitivity; also recorded: marked sensitivity
MK-1775,histone mRNA levels,[9],did not decrease
same,"sensitization to DNA damaging agents such as gemcitabine, 5-fluorouracil",[10],able to sensitize
same,histone mRNA levels,[11],significant increase
same,occurrence of pTyr37-H2B at site I and II,[12],significantly reduced
same,recruitment of NPAT and RNA polymerase II,[13],binding was detected
same,apoptosis,[14],selectively induce apoptosis
